Literature values as cited in PMC4452912 (Viruses, 2015).

What was measured:
[1] = mouse, in vivo; cited from earlier work
DENV, HCV, and HIV = system: DENV, HCV, and HIV; parameters: method as in ref 3 = [3]; conditions: cited from earlier work
DENV-2 = system: DENV-2; parameters: method as in ref 16 = [16]; conditions: DENV-2 ADE mouse model; cited from earlier work

In the case of `CCCCN1C[C@H](O)[C@@H](O)[C@H](O)[C@H]1CO` [NB-DNJ, N-butyl-deoxynojirimycin], the thymus effect [1] is given as “thymus weight loss” and the “concentrations required for broad-spectrum antiviral activity in vitro” value (DENV, HCV, and HIV) is given as > 30 µM.
For `COCCCCCCCCCN1C[C@H](O)[C@@H](O)[C@H](O)[C@H]1CO` [UV-4], the “dose range promoting survival” value (DENV-2) is given as 10 to 20 mg/kg.
